Literature values as cited in patent US20030185915A1, “Synergetic composition for the treatment of psoriasis and other skin disorders and method therefor” (priority 2002, published 2003).

System: psoriatic arthritis
Details: usually within four to eight weeks

Question: For `O=C(O)c1cc(/N=N/c2ccc(S(=O)(=O)Nc3ccccn3)cc2)ccc1O` [Sulfasalazine], which “fraction of PA patients responding rapidly” value is on record?
Answer: Approximately one-third
